Values of other authors, collected in patent US12409121B2, “Formulations and methods for preparing stable cosmetic compositions” (Spinart, LLC, priority 2019, dated 2025).

In the case of `N=C(N)NCCCC(N)C(=O)O` (centres unmarked) [Arginine], the “α-CO2H pKa1” value (carboxylic group) is given as 2.18 and the “α-NH3 pKa2” value (α-amino group) is given as 9.09.
